# Laboratory results: paper doi:10.1101/2025.02.17.637997, “Phosphorylation-State Modulated Binding of HSP70: Structural Insights and Compensatory Protein Engineering” (bioRxiv, 2025)
# Several values for one entry are separate records, joined by “and”; a condition that tells them apart may be missing. Equal entries are not always repeated. Ends that are not written are not given here. * marks the point of attachment. FITC = O=C1OC2(c3ccc(O)cc3Oc3cc(O)ccc32)c2ccc(NC(=S)*)cc21; Ahx = NCCCCCC(=O)O
# T1: CHIP-WT (Homo sapiens, UniProt Q9UNE7)
# T1 construct: His; made in house
# T1 sequence (Q9UNE7 1-303): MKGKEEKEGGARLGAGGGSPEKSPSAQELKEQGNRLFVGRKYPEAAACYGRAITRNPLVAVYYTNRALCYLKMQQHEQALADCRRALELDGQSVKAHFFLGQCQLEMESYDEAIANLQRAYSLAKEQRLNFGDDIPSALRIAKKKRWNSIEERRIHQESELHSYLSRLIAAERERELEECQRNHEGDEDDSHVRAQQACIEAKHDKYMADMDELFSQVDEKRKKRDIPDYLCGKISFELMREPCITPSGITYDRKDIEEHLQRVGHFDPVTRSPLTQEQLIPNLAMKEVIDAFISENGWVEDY
# T2: recombinant full-length CHIP-WT (UniProt Q9UNE7 1-303)
# T2 chain: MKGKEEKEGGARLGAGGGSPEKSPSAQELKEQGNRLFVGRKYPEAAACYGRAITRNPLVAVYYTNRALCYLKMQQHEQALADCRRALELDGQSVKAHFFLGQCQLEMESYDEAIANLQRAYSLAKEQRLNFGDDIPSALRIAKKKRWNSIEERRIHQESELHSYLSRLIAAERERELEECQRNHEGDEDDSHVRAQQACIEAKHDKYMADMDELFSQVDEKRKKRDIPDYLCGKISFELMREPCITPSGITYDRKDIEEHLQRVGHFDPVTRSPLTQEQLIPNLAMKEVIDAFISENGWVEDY
# T3: CHIP domain fragment: TPR with the coiled-coil domain
# T3 chain: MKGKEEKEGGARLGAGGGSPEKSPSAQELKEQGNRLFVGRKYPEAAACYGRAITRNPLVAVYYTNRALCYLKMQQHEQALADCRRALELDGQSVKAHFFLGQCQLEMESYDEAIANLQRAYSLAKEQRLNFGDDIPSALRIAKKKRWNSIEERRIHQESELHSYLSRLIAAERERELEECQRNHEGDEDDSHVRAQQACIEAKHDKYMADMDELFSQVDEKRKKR
# T4: recombinant full-length CHIP-WT (UniProt Q9UNE7 1-303)
# T4 sequence (looked up): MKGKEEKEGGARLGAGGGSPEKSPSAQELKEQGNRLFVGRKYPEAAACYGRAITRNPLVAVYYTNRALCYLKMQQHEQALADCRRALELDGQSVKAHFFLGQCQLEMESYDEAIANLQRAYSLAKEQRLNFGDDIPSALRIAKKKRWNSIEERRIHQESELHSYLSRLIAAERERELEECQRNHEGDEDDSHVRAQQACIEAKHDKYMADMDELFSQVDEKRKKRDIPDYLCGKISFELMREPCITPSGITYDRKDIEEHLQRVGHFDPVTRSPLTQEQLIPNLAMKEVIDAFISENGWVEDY
# T5: recombinant full-length CHIP-G132N (UniProt Q9UNE7 1-303, G132N)
# T5 construct: CHIP, full-length recombinant protein with G132N
# T5 sequence (looked up): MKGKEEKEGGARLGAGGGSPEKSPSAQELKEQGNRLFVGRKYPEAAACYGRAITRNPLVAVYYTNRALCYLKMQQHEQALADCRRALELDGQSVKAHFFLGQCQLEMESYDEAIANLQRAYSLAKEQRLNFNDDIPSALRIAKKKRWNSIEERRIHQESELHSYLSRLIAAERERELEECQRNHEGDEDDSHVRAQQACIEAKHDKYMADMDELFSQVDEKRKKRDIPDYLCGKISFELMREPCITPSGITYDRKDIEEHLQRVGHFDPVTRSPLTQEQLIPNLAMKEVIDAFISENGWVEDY
# T6: CHIP-TPR (21–154) (UniProt Q9UNE7 21-154)
# T6 construct: also called extended TPR domain of CHIP
# T6 sequence (looked up): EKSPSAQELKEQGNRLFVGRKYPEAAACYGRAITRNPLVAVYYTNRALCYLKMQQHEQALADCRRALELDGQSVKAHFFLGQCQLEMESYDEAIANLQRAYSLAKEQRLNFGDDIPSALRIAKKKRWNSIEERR
# Assays:
# [1] = tested on: SmBiT-CHIP-WT; assay: NanoBiT live-cell interaction, COS-7, SmBiT-CHIP-WT; assay type: cell-based; settings: COS-7, CHIP-WT, three independent transfections, Fig. 1F
# Experimental: (§1) HEK293 and COS-7 cells were acquired from the UNC Lineberger Comprehensive Cancer Center Tissue Culture Facility. Cultures were maintained in Dulbecco’s Modified Eagle Medium with 10% fetal bovine serum at 37 °C and 5% CO2. Using the manufacturers’ instructions, X-tremeGENE 9 was used to transfect cells with plasmid DNA except for NanoBiT constructs, in which case we used Lipofectamine 3000 (Thermo Fisher Scientific). Where indicated, twenty-four hours post-transfection, cells were treated with 20 μM MG-132 (Selleck Chemicals) for 6 h or 100 μM cycloheximide (Sigma-Aldrich) for the stated duration.
# (§2) NanoBiT Protein: Protein Interaction System (Promega) was used to measure protein-protein interaction data following the manufacturer’s instructions. As previously described, LgBiT-HSP70 and SmBiT-CHIP construct interactions were used as positive controls ([22]). Twenty-four hours post-transfection, the cells were collected, replated in 96-well clear bottom white-sided tissue culture plates, and maintained at 37 °C and 5% CO2 for 45 min. Nano-Glo Live Cell Reagent (Promega) was added, and luminescence was measured using a CLARIOstar microplate reader over 20 minutes. The total area under the maximum luminescence curve was quantified and used to compare changes in HSP70-CHIP interactions relative to the WT-WT conditions.
# [2] = tested on: HSP70 steady-state levels in HEK-293 cells; assay: Cycloheximide chase of HSP70 steady-state levels, HEK-293; assay type: cell-based; settings: Flag immunoblot, representative, Fig. S1
# Experimental: as §1
# (§3) Samples were collected in a lysis buffer composed of 50 mM Tris-HCl (pH 7.4), 150 mM NaCl, 2 mM EDTA, and 1% Triton X-100, supplemented with 1X Halt protease and phosphatase inhibitor (Thermo Scientific). The samples were then sonicated and combined with Laemmli sample buffer (Bio-Rad). The lysates were resolved on 4–15% TGX Stain-Free gels (Bio-Rad) and transferred to PVDF membranes (Bio-Rad). The membranes were blocked in 5% milk and incubated with primary antibodies (Table S3) overnight at 4°C. Following this, HRP-conjugated secondary antibodies (Cell Signaling Technology) were applied. Detection was performed using Lumigen ECL Ultra (Lumigen, tma-100), and the blots were imaged with the ChemiDoc Imaging System (BioRad).
# [3] = tested on: SmBiT-CHIP-WT; assay: NanoBiT live-cell interaction, HEK-293, SmBiT-CHIP-WT; assay type: cell-based; settings: HEK-293, CHIP-WT, luminescence over 20 min, three independent transfections, Fig. 1E
# Experimental: as §1, §2
# [4] = tested on: HSP70 steady-state levels in COS-7 cells; assay: Cycloheximide chase of HSP70 steady-state levels, COS-7; assay type: cell-based
# Experimental: as §1, §3
# [5] = biological target: T1, CHIP-WT; assay: Co-immunoprecipitation of HSP70 with CHIP-WT, COS-7; assay type: cell-based; settings: Co-IP of MYC-CHIP-WT, vs HSP70-WT and HSP70-T636A, densitometry, Fig. 1I
# Experimental: as §3
# (§4) Ezview™ Red Anti-c-Myc Affinity Gel Beads (Sigma-Aldrich) were used for co-immunoprecipitation of myc-tagged proteins. Proteins were eluted via boiling before western blot analysis.
# [6] = tested on: HEK-293 cells; settings: HEK-293, electrical impedance; ref [16]; cited from earlier work
# [7] = tested on: SmBiT-CHIP-G132N; assay: NanoBiT live-cell interaction, HEK-293, SmBiT-CHIP-G132N; assay type: cell-based; settings: HEK-293, CHIP-G132N, three independent transfections, p = 0.2114 vs. Δ with CHIP-WT, Fig. 1E
# Experimental: as §1, §2
# [8] = tested on: SmBiT-CHIP-G132N; assay: NanoBiT live-cell interaction, COS-7, SmBiT-CHIP-G132N; assay type: cell-based; settings: COS-7, CHIP-G132N, three independent transfections, Fig. 1F
# Experimental: as §1, §2
# [9] = biological target: CHIP TPR-CC (Homo sapiens, UniProt Q9UNE7); assay: Fluorescence polarization, CHIP TPR-CC fragment; assay type: binding; settings: FP; Fig. 2C
# Source text: (§5) A complete list of vectors is listed in Table S1 and deposited at Addgene (pending ID). Plasmids were maintained and propagated in DH5-alpha E. coli and purified using the Miniprep plasmid kit (Qiagen) or Quantum Prep® Plasmid Midiprep Kit (Bio-Rad). We used the Q5 Site-Directed Mutagenesis Kit (NEB) or […] II XL (NC9045762, Agilent Technologies) site-directed mutagenesis kit for editing plasmids and validated via DNA sequencing. Lifetein or Genscript synthesized the peptides used in the study. […] The amino-terminal biotin-labeled HSP70 tail peptide (biotin-[…], termed as biotin-EEVD) and the amino-terminal biotin-labeled pT-HSP70 tail peptide (biotin-GSGSGP(pT)IEEVD, termed as biotin-pEEVD) were purchased (Lifetein). The peptides used for fluorescent polarization were N-FITC-Ahx-[…] (EEVD) or N-FITC-Ahx-GSGP(pT)IEEVD (pEEVD). Recombinant CHIP-TPR constructs were recombinantly expressed using the pHis//2 CHIP-TPR (21–154) plasmid and purified as previously described ([21]) and additional CHIP proteins were purified as previously described ([22]).
# (§6) The N-terminally-labelled peptides were loaded into PCR reaction tubes at 2X (40 nM), with the final concentration being 20 nM. Recombinant CHIP constructs were added into the tubes at the indicated concentrations. […] The polarization reads were normalized to the dilution buffer. […]
# [10] = tested on: CHIP TPR-UBOX; assay: Fluorescence polarization, CHIP TPR-UBOX (CC deletion); assay type: binding; settings: FP; Fig. 2C
# Source text: as §5, §6
# [11] = tested on: HSP70; assay: Co-immunoprecipitation of CHIP variants with HSP70, COS-7; assay type: cell-based; settings: Co-IP of MYC-CHIP, Fig. 1I
# Experimental: as §3, §4
# [12] = tested on: LgBiT-HSP70 T636A/D; assay: NanoBiT live-cell interaction, COS-7, CHIP variants with LgBiT-HSP70; assay type: cell-based; settings: Fig. 1F
# Experimental: as §1, §2
# [13] = tested on: LgBiT-HSP70 T636A/D; assay: NanoBiT live-cell interaction, HEK-293, CHIP variants with LgBiT-HSP70; assay type: cell-based; settings: compared with CHIP-WT, Fig. 1E
# Experimental: as §1, §2
# [14] = biological target: T2, recombinant full-length CHIP-WT; assay: FP
# [15] = biological target: recombinant full-length CHIP-G132N (UniProt Q9UNE7 1-303, G132N); assay: FP
# [16] = biological target: T3, CHIP domain fragment: TPR with the …; assay: FP
# [17] = biological target: recombinant full-length CHIP-K30A (UniProt Q9UNE7 1-303, K30A); assay: FP
# [18] = biological target: T4, recombinant full-length CHIP-WT; assay: fluorescence polarisation; 20 nM N-terminally FITC-labelled peptide, recombinant CHIP constructs at increasing concentrations, 30 minutes at room temperature; one site/total binding fit with Bmax constrained to 100; settings: both partners purified
# [19] = biological target: T5, recombinant full-length CHIP-G132N; assay: as above; settings: both partners purified
# [20] = biological target: T6, CHIP-TPR (21–154); assay: as above; settings: both partners purified
molecule,measurement,setting,value
HSP70-T636D: phospho-mimetic version of HSP70,Δ luminescence comparing HSP70-T636D to HSP70-T636A,[1],−85%
same,percent change of HSP70 level from time 0,"[2]; cycloheximide +MG132, 6 h (column from layout)",+98%
same,percent change of HSP70 level from time 0,"[2]; cycloheximide, 6 h, without MG132 (column from layout)",-80%
same,decrease in luminescence compared to HSP70-T636A,[3],42%
same,loss of HSP70 steady-state level after inhibiting translation,"[4]; cycloheximide 100 μM, six hours, change from time 0, representative immunoblot, Fig. 1J",76%
same,HSP70 steady-state level after cycloheximide,"[4]; cycloheximide, six hours, compared to HSP70-WT and HSP70-T636A, Fig. 1J",more robust decreases
same,HSP70 steady-state level with proteasome inhibitor,"[4]; with MG-132, Fig. 1J",recovery of protein levels
same,reduction of HSP70 co-precipitated by CHIP-WT,[5],over 90%
same,effect on cell growth / proliferation,[6],no effect
same,decrease in luminescence compared to HSP70-T636A,[7],57%
same,Δ luminescence comparing HSP70-T636D to HSP70-T636A,[8],−66%
N-FITC-Ahx-GSGPTIEEVD [unphosphorylated HSP70 tail peptide used for fluorescent polarization],"EEVD tail interaction, effect of the coiled-coil domain",[9],minimal change
same,EEVD tail peptide interaction with U-box moved closer to TPR,[10],eliminated EEVD tail peptide interactions
CHIP-K30A: substitution known to disrupt the ability of CHIP's TPR domain to bind EEVD motifs (protein) MKGKEEKEGGARLGAGGGSPEKSPSAQELAEQGNRLFVGRKYPEAAACYGRAITRNPLVAVYYTNRALCYLKMQQHEQALADCRRALELDGQSVKAHFFLGQCQLEMESYDEAIANLQRAYSLAKEQRLNFGDDIPSALRIAKKKRWNSIEERRIHQESELHSYLSRLIAAERERELEECQRNHEGDEDDSHVRAQQACIEAKHDKYMADMDELFSQVDEKRKKRDIPDYLCGKISFELMREPCITPSGITYDRKDIEEHLQRVGHFDPVTRSPLTQEQLIPNLAMKEVIDAFISENGWVEDY,co-precipitation of HSP70 by CHIP variant,[11],failed to precipitate appreciable amounts of HSP70 construct above background levels
same,luminescence of CHIP variant with HSP70 constructs,[12],limited luminescence detected
same,luminescence of CHIP variant with HSP70-T636A/D,[13],robust decrease in luminescence
{FITC-Ahx}-GSGPTIEEVD (C-terminal tail of HSP70; tracer of the fluorescence polarisation assay; also called HSP70 peptide tracer; source: synthetic peptide (Lifetein or Genscript)) [N-FITC-Ahx-GSGPTIEEVD],Kd,[14],6.5 µM and 7 µM
same,Kd,[15],9.2 µM
same,Kd,[16],28 µM
same,Kd,[17],66 µM
same,binding result,[18],binds
same,binding result,[19],binds
same,binding result,[20],binds
